We go through 26 compounds from ChEMBL document CHEMBL5500332, “Structure-based approaches for the design of 6-aryl-1-(3,4,5-trimethoxyphenyl)-1H-benzo[d][1,2,3]triazoles as tubulin polymerization inhibitors” (Eur J Med Chem, 2024).

The term IC50 denotes the concentration at which inhibition is half-maximal. Read a high IC50 as a need for much substance.

Active and inactive are the calls of the source. The calls are words filed in the database; no cut-off is given here. Some results are limits rather than exact numbers.

Assay [1] concerns MCF7. Put plainly: Antiproliferative activity against human MCF7 cells measured after 72 hrs by MTT assay. It counts as functional, cell-based. Particulars: MCF7, 72 h. (Tetrazolium dyes change colour on reduction, which living cells bring about.)
Assay [2] relates to A549. As to the kind of experiment: Antiproliferative activity against human A549 cells measured after 72 hrs by MTT assay. It is filed as functional, cell-based. The note with it: A549, 72 h.
For assay [3], the system named is SGC-7901. Put plainly: Antiproliferative activity against human SGC-7901 cells measured after 72 hrs by MTT assay. It counts as functional, cell-based. Particulars: SGC-7901, 72 h.
The target of assay [4] is Tubulin (Homo sapiens) (UniProt P68371+Q9H4B7+P0DPH7+P68366+Q13509+Q71U36+P04350+Q3ZCM7+P07437+P68363+Q9BQE3+Q6PEY2+Q13885+Q9BVA1+Q9BUF5). Put plainly: Inhibition of tubulin polymerization (unknown origin) at 3 uM measured every 60 secs for 90 mins by microplate reader based analysis. It is filed as protein-complex assay.
Assay [5] relates to 4T1. As to the kind of experiment: Antitumor activity against mouse 4T1 cells xenografted in BALB/c mouse model assessed as tumor growth inhibition rate at 10 mg/kg, iv measured every two days for 2 weeks relative to control. It counts as functional. The note with it: 4T1, 336 h, read-out: TGI.
The test system of assay [6] is MCF7. Put plainly: Induction of cell cycle arrest in human MCF7 cells assessed as accumulation of cells at S phase at 30 nM incubated for 24 hrs by PI staining based flow cytometry analysis (reference value: 14.58%). It counts as functional. A general note: In flow cytometry, cells or beads pass a laser one at a time.
Assay [7] relates to MCF7. Put plainly: Induction of cell cycle arrest in human MCF7 cells assessed as accumulation of cells at G0/G1 phase at 30 nM incubated for 24 hrs by PI staining based flow cytometry analysis (reference value: 69.67%). It counts as functional.
Assay [8] relates to MCF7. As to the kind of experiment: Induction of cell cycle arrest in human MCF7 cells assessed as accumulation of cells at G2/M phase at 30 nM incubated for 24 hrs by PI staining based flow cytometry analysis (reference value: 14.36%). It counts as functional.
Assay [9] concerns MCF7. As to the kind of experiment: Induction of cell cycle arrest in human MCF7 cells assessed as accumulation of cells at G2/M phase at 15 nM incubated for 24 hrs by PI staining based flow cytometry analysis (reference value: 14.36%). It counts as functional.
For assay [10], the system named is MCF7. Put plainly: Induction of cell cycle arrest in human MCF7 cells assessed as accumulation of cells at S phase at 15 nM incubated for 24 hrs by PI staining based flow cytometry analysis (reference value: 14.58 %). It counts as functional.
Assay [11] has as its system MCF7. Put plainly: Induction of cell cycle arrest in human MCF7 cells assessed as accumulation of cells at G0/G1 phase at 15 nM incubated for 24 hrs by PI staining based flow cytometry analysis (reference value: 69.67%). It counts as functional.

As to `COc1cc(-n2nnc3ccc(-c4ccc(F)cc4)cc32)cc(OC)c1OC`, the IC50 in [1] was determined as 1250 nM; in assay [2], 2150 nM; in assay [3] it was 789 nM.
On to `COc1cc(-n2nnc3ccc(-c4cccc([N+](=O)[O-])c4)cc32)cc(OC)c1OC`, for which the results for the 50% inhibitory concentration (IC50) in assay [1], in assay [2] and in [3] were 3800 nM, 1940 nM and 6670 nM, respectively.
For `COc1cccc(-c2ccc3nnn(-c4cc(OC)c(OC)c(OC)c4)c3c2)c1`, in that order: 3280 nM, 6850 nM and 8120 nM.
With `COc1cc(-n2nnc3ccc(-c4ccccc4Cl)cc32)cc(OC)c1OC`, the values for the IC50 in assay [1], in [2] and in assay [3] were 8360 nM, 9560 nM and 6340 nM, respectively.
The matching figures for `CCOc1ccc(-c2ccc3nnn(-c4cc(OC)c(OC)c(OC)c4)c3c2)cc1`: 8250 nM, 2690 nM and over 10000 nM.
As to `COc1cc(-n2nnc3ccc(-c4ccc(C)cc4)cc32)cc(OC)c1OC`, the half-maximal inhibitory concentration (IC50) in assay [1] came to 330 nM; in assay [2], 1400 nM; in [3], 529 nM.
On to `COc1ccc(-c2ccc3nnn(-c4ccc(OC)c(OC)c4)c3c2)cc1O`, for which the IC50 in assay [1] was 346 nM; in assay [2], 3930 nM; in assay [3], 188 nM.
The matching figures for `COc1ccc(-c2ccc3ncn(-c4cc(OC)c(OC)c(OC)c4)c3c2)cc1O`: 42 nM, 210 nM and 45 nM.
For `COc1cc(-n2nnc3ccc(-c4ccc(Cl)cc4Cl)cc32)cc(OC)c1OC`, in that order: 6570 nM, over 10000 nM and 2840 nM.
For `COc1cc(-n2nnc3ccc(-c4cccc(Cl)c4)cc32)cc(OC)c1OC`, in that order: 2280 nM, 4500 nM and 1480 nM.
Turning to `COc1cc(-c2ccc3nnn(-c4cc(OC)c(OC)c(OC)c4)c3c2)cc(OC)c1OC`, the IC50 in [1] is over 10000 nM; in [2], 4790 nM; in assay [3], over 10000 nM.
In the case of `COc1cc(-n2nnc3ccc(-c4cccc(O)c4)cc32)cc(OC)c1OC`, the 50% inhibitory concentration (IC50) in [1] amounted to 257 nM; in assay [2], 3530 nM; in assay [3], 1200 nM.
For `COc1cc(-n2nnc3ccc(-c4ccc([N+](=O)[O-])cc4)cc32)cc(OC)c1OC`, in that order: 3100 nM, over 10000 nM and 3170 nM.
In the case of `COc1cc(-n2nnc3ccc(-c4ccc(Cl)cc4)cc32)cc(OC)c1OC`, the values for the half-inhibitory concentration (IC50) in assay [1], in assay [2] and in assay [3] were 1520 nM, 3750 nM and 1460 nM, respectively.
For `COc1cc(-n2nnc3ccc(-c4cccc(C)c4)cc32)cc(OC)c1OC`, in that order: 212 nM, 2450 nM and 412 nM.
In the case of `COc1cc(-n2nnc3ccc(-c4ccc(O)cc4)cc32)cc(OC)c1OC`, the IC50 in [1] turned out to be 1300 nM; in assay [2], 5110 nM; in assay [3], 4240 nM.
As to `COc1ccccc1-c1ccc2nnn(-c3cc(OC)c(OC)c(OC)c3)c2c1`, the 50% inhibitory concentration (IC50) stood at 3270 nM in assay [1], 6500 nM in assay [2] and 1970 nM in assay [3].
As for `COc1cc(-n2nnc3ccc(-c4ccccc4)cc32)cc(OC)c1OC`, the IC50 in [1] is 242 nM; in [2], 1980 nM; in [3] it was 1820 nM.
For `COc1cc(-n2nnc3ccc(-c4ccc(C(C)=O)cc4)cc32)cc(OC)c1OC`, in that order: 3090 nM, 2570 nM and 4850 nM.
Turning to `CC(=O)O[C@H]1C(=O)[C@@]2(C)[C@H]([C@H](OC(=O)c3ccccc3)[C@]3(O)C[C@H](OC(=O)[C@H](O)[C@@H](NC(=O)c4ccccc4)c4ccccc4)C(C)=C1C3(C)C)[C@]1(OC(C)=O)CO[C@@H]1C[C@@H]2O` [PACLITAXEL], in assay [4], the inhibition entry is “inactive”. Also, in assay [5], the inhibition in vivo at 10 mg/kg stood at 72.1%.
Turning to `COc1cc(OC)cc(-n2nnc3ccc(-c4ccc(OC)c(O)c4)cc32)c1`, the IC50 in assay [1] is 726 nM; in assay [2], 6460 nM; in assay [3] it was 1070 nM.
The matching figures for `COc1cc(-n2nnc3ccc(-c4ccc(C(F)(F)F)cc4)cc32)cc(OC)c1OC`: 3390 nM, 5070 nM and 6600 nM.
For `COc1cc(-n2nnc3ccc(-c4cccc(F)c4)cc32)cc(OC)c1OC`, in that order: 7490 nM, 7240 nM and 2980 nM.
The matching figures for `COc1ccc(-c2ccc3nnn(-c4cc(OC)c(OC)c(OC)c4)c3c2)cc1`: 212 nM, 1400 nM and 447 nM.
For the compound `COc1cc(-n2nnc3ccc(-c4ccc(C)cc4F)cc32)cc(OC)c1OC`, the IC50 worked out at 92 nM in [1], 1070 nM in assay [2] and 893 nM in assay [3].
In the case of `COc1cc2c(c(OC)c1OC)-c1ccc(OC)c(=O)cc1[C@@H](NC(C)=O)CC2` [COLCHICINE], the Activity in assay [6] was 28.2%; in [7] it was 8.87%; in [8] it was 63.44%; in assay [9], 35.05%; in assay [10], 24.77%; in assay [11] it was 37.19%. For the same compound, the IC50 in assay [1] is 30 nM; in [3] it was 12 nM.
